Test system: Melanocytes (B16 cell line)
Assay: Melanogenesis inhibition assay (melanin level by optical density at 475 nm; viable cells by cellular proteins, Bradford's method)
Assay type: cell-based
Details: for Protein level (rate of cellular proteins) / Melanin level (rate of melanin): B16 melanocytes, 3 days incubation; for Protein level (rate of cellular proteins): Bradford's method; for Melanin level (rate of melanin): OD 475 nm
Protocol: Melanocytes (B16 cell line) were inoculated in standard medium of cell culture with foetal calf serum (FCS). After an incubation of 3 day at 37° C. and CO2=5%, growth medium was exchanged for standard medium with a range of concentrations for each compound to be tested and a control without ingredient. After an incubation of 3 days, the level of melanin was measured by recording the optical density at 475 nm. After washing the cells by a balanced salt, and homogenisation in a solution of 0.1 M NaOH, the number of viable cells was determined by evaluation of the level of cellular proteins (Bradford's method). The results are expressed in % against control (cell culture medium without compound) as a mean on 1 to 3 assays, each in triplicate.

CC(Oc1ccc(O)cc1)C(=O)O (racemic) [2-(4-hydroxyphenoxy)-propionic acid]
Protein level (rate of cellular proteins) (dose 0.00003 % (w/v)): 103 %/control
Melanin level (rate of melanin) (dose 0.00003 % (w/v)): 84 %/control
Protein level (rate of cellular proteins) (dose 0.0001 % (w/v)): 97 %/control
Melanin level (rate of melanin) (dose 0.0001 % (w/v)): 57 %/control
Protein level (rate of cellular proteins) (dose 0.0003 % (w/v)): 107 %/control
Melanin level (rate of melanin) (dose 0.0003 % (w/v)): 52 %/control
Protein level (rate of cellular proteins) (dose 0.001 % (w/v)): 104 %/control
Melanin level (rate of melanin) (dose 0.001 % (w/v)): 39 %/control
Protein level (rate of cellular proteins) (dose 0.01 % (w/v)): 98 %/control
Melanin level (rate of melanin) (dose 0.01 % (w/v)): 37 %/control
cell toxicity (melanocytes, doses up to 0.01%): without any cell toxicity
rate of melanin synthesis in melanocytes (result in words, over the tested dose range): decreased in a dose dependant manner

— patent US8247447B2, “Use of derivatives of 4-hydroxyphenoxy acetic acid” (Cognis IP Management GmbH, priority 2007, dated 2012)
